Results: patent publication US12448373B2, “Azetidinyl-acetamides as CXCR7 inhibitors” (CHEMOCENTRYX, INC., priority 2021, dated 2025)

These compounds were tested against T1, CXCR7 (Homo sapiens, UniProt P25106) (assay: CXCR7 β-arrestin recruitment assay in CHO-CXCR7 cells (ProLink/EA β-galactosidase complementation), induced by human SDF-1a). Conditions: assay buffer, SDF-1a at EC50 concentration.
T1 construct: expressed in transfected cells; host or cells: CHO cells (CHO-CXCR7), transgenes maintained with Hygromycin B and G418
T1 sequence (P25106 whole entry): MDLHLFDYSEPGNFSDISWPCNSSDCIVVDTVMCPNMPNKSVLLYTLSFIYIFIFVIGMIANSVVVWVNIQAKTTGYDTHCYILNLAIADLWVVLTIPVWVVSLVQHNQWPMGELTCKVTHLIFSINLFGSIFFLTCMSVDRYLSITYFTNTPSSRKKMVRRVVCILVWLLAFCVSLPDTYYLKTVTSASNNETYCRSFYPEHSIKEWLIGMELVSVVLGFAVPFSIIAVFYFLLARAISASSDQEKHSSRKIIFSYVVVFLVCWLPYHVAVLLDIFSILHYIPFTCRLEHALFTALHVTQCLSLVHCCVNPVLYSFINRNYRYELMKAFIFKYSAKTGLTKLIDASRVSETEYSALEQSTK
Assay type: cell-based
Experimental: CXCR7 is fused in frame with a small enzyme donor fragment ProLink and co-expressed in CHO cells stably expressing a fusion protein of β-arrestin and the larger, N-terminal deletion mutant of β-galactosidase (called enzyme acceptor or EA). Activation of the CXCR7 stimulates binding of β-arrestin to the ProLink-tagged CXCR7 and forces complementation of the two enzyme fragments, resulting in the formation of an active β-galactosidase enzyme. The β-galactosidase enzyme activity is measured with a substrate that generates fluorescence.
CHO-CXCR7 cells (0.22×10^6/mL) were cultured in growth medium (Ham's F-12 medium with 10% fetal bovine serum (FBS)), Hygromycin B (200 ug/mL) and G418 (250 ug/mL) were used to maintain the transgenes. The day before the assay, the cells were detached from culture dishes with 0.25% trypsin-EDTA (Corning, Catalog No. 25-053-CI), plated into 96 well plate (2.2×10^5 cells/mL, 100 μL/well) and incubated overnight at 37° C. with 5% CO2. On the day of the assay, cell culture medium was removed and 100 uL of assay buffer (PBS or FBS) was added to each well. 1 μL of compound that were serially diluted in DMSO was added to each well. 5 μL of human SDF-la (Pepro Tech, Catalog No. 300-28A, at EC50 concentration pre-determined on the same day) was then added and mixed to induce CXCR7-mediated β-arrestin recruitment. The plates were incubated for 1.5 hours at 37° C. The assay buffer was removed, 100 μL substrate solution was added and the reaction was carried out at 37° C. for 30 minutes. The substrate solution was prepared by mixing 100 mL Phosphate Buffer (1M, Sigma, Catalog No. P3619-1GA), 100 mL 10% Triton X 100 (Sigma, Catalog No. T8787.), 5 mL MgCl2 (1M, Sigma, Catalog No. M1028), 1.5 mL, β-mercaptoethanol (Gibco, Catalog No. 21985-023.). 3-carboxyumbelliferyl β-D-galactopyranoside (ThermoFisher Scientific, Catalo No. F2905) was added at 0.4 mM right before use. The reaction was then stopped by adding 50 μL of Stop Solution (2.1% w/v Na2CO3) to each well. Fluorescence intensity was measured with a FlexStation 3 microplate reader (Molecular Devices) with the following setting—excitation: 360 nm, emission: 465 nm, manual Gain: 55. IC50 values were calculated with GraphPad Prism using 3 parameter nonlinear regression.

| Compound | IC50 [nM] |
| --- | --- |
| CC(C)CN1CC(CC(=O)NC(C)(C)c2cccc(Cl)c2)(NC(=O)c2nnc(-c3ccc(F)cc3F)s2)C1 [Example 1.040] | 5 to 100 |
| CC(C)(O)CN1CC(CC(=O)NC(C)(C)c2cccc(F)c2)(NC(=O)c2cc(-c3ccc(F)cc3F)on2)C1 [Example 1.251] | 5 to 100 |
| CC(C)(NC(=O)CC1(NC(=O)c2cn(-c3ccc(F)cc3F)nn2)CN([C@H]2CC[C@](C)(O)CC2)C1)c1ccccc1 [Example 1.081] | 5 to 100 |
| CC1(C)CCC(N2CC(CC(=O)NC(C)(C)c3cc(Cl)cc(Cl)c3)(NC(=O)c3cc(-c4ccc(F)cc4F)on3)C2)CC1 [Example 1.105] | < 5 |
| CC(C)(NC(=O)CC1(NC(=O)c2cc(-c3ccc(F)cc3F)on2)CN([C@H]2CC[C@](C)(O)CC2)C1)c1ccnc(C2CC2)c1 [Example 1.147] | 5 to 100 |
| CC(C)(NC(=O)CC1(NC(=O)c2cc(-c3ccc(F)cc3F)on2)CN(C2CCC3(CCOCC3)CC2)C1)c1ccccn1 [Example 1.102] | 100 to 1000 |
| Cc1c(C(=O)NC2(CC(=O)NC(C)(C)c3cccc(Cl)c3)CN(C3CCCCC3)C2)noc1-c1ccc(F)cc1F [Example 1.340] | 1000 to 20000 |
| CC(C)(C)CN1CC(CC(=O)NC2(c3ncccn3)CC2)(NC(=O)c2cc(-c3ccc(F)cc3F)on2)C1 [Example 1.330] | 5 to 100 |
| CC[C@H](NC(=O)CC1(NC(=O)c2cc(-c3ccc(F)cc3F)on2)CN(C2CCCCC2)C1)c1ccccc1 [Example 1.304] | 5 to 100 |
| Cc1cc(C)nc(C(C)(C)NC(=O)CC2(NC(=O)c3cc(-c4ccc(F)cc4F)on3)CN(C3CCOC(C)(C)C3)C2)n1 (centres unmarked) [Example 1.359] | 5 to 100 |
| Cc1cc(C(C)(C)NC(=O)CC2(NC(=O)c3cc(-c4ccc(F)cc4F)on3)CN(CC3(O)CCC3)C2)ccn1 [Example 1.150] | 100 to 1000 |
| CC(C)(NC(=O)CC1(NC(=O)c2cc(-c3ccc(F)cc3F)on2)CN(C2CCCCC2)C1)c1ncccn1 [Example 1.270] | 5 to 100 |
| CC(C)CN1CC(CC(=O)NC(C)(C)c2cccc(Cl)c2)(NC(=O)c2cc(-c3ccc(F)cc3F)on2)C1 [Example 1.120] | 5 to 100 |
| CC(C)(NC(=O)CC1(NC(=O)c2cc(-c3ccc(F)cc3F)on2)CN(C2CCCCC2)C1)c1ccc(F)cc1F [Example 1.263] | 1000 to 20000 |
| CC(C)(NC(=O)CC1(NC(=O)c2cc(-c3ccc(F)cc3F)on2)CN(C2CCC(O)CC2)C1)c1ccccn1 (centres unmarked) [Example 1.300] | 5 to 100 |
| CC(CN1CC(CC(=O)NC(C)(C)c2ccccn2)(NC(=O)c2cc(-c3ccc(F)cc3F)on2)C1)C(F)(F)F (centres unmarked) [Example 1.018] | 100 to 1000 |
| O=C(CC1(NC(=O)c2cc(-c3ccc(F)cc3F)on2)CN(C2CCCCC2)C1)NC1(c2ccccc2)COC1 [Example 1.320] | 5 to 100 |
| CC(C)(NC(=O)CC1(NC(=O)c2cn(-c3ccc(F)cc3)nn2)CN([C@H]2CC[C@](C)(O)CC2)C1)c1ccccc1 [Example 1.084] | 100 to 1000 |
| CC(C)(NC(=O)CC1(NC(=O)c2cn(-c3ccc(F)cc3F)nn2)CN(C2CCCCC2)C1)c1cccc(Cl)c1 [Example 1.076] | 5 to 100 |
| O=C(CC1(NC(=O)c2cc(-c3ccc(F)cc3F)on2)CN(C2CCCCC2)C1)N[C@@H](C(=O)O)c1ccccc1 [Example 1.282] | 1000 to 20000 |
| CC(C)(NC(=O)CC1(NC(=O)c2cc(-c3ccc(F)cc3F)on2)CN([C@H]2CC[C@](C)(O)CC2)C1)c1cc(F)cc(F)c1 [Example 1.153] | < 5 |
| CC(C)(NC(=O)CC1(NC(=O)c2cc(-c3ccc(F)cc3F)on2)CN(CC2CCOCC2)C1)c1ccccn1 [Example 1.222] | 100 to 1000 |

Continued, values first:

| IC50 [nM] | Compound |
| --- | --- |
| < 5 | Cc1cccc(C(C)(C)NC(=O)CC2(NC(=O)c3nnc(-c4ccc(F)cc4F)s3)CN([C@H]3CC[C@](C)(O)CC3)C2)n1 [Example 1.032] |
| 100 to 1000 | Cc1ccc(C(C)(C)NC(=O)CC2(NC(=O)c3cc(-c4ccc(F)cc4F)on3)CN([C@H]3CC[C@](C)(O)CC3)C2)cc1 [Example 1.243] |
| 5 to 100 | Cc1ccnc(C(C)(C)NC(=O)CC2(NC(=O)c3nnc(-c4ccc(F)cc4F)s3)CN([C@H]3CC[C@](C)(O)CC3)C2)c1 [Example 1.338] |
| 100 to 1000 | CC(C)(NC(=O)CC1(NC(=O)c2cc(-c3ccc(F)cc3F)on2)CN([C@H]2CC[C@@](C)(O)CC2)C1)c1ccc(F)cn1 [Example 1.207] |
| < 5 | Cc1cccc(C(C)(C)NC(=O)CC2(NC(=O)c3cc(-c4ccc(F)cc4F)on3)CN([C@H]3CC[C@](C)(O)CC3)C2)n1 [Example 1.121] |
| < 5 | Cc1cccc(C(C)(C)NC(=O)CC2(NC(=O)c3cc(-c4ccc(F)cc4F)on3)CN([C@H]3CC[C@@](C)(O)CC3)C2)n1 [Example 1.225] |
| 5 to 100 | Cc1cc(C(F)(F)F)cc(C(C)(C)NC(=O)CC2(NC(=O)c3cc(-c4ccc(F)cc4F)on3)CN([C@H]3CC[C@](C)(O)CC3)C2)n1 [Example 1.343] |
| 5 to 100 | COc1cc(C)nc(C(C)(C)NC(=O)CC2(NC(=O)c3cc(-c4ccc(F)cc4F)on3)CN([C@H]3CC[C@](C)(O)CC3)C2)c1 [Example 1.339] |
| 5 to 100 | Cn1ccc2c(C(C)(C)NC(=O)CC3(NC(=O)c4cc(-c5ccc(F)cc5F)on4)CN([C@H]4CC[C@](C)(O)CC4)C3)cccc21 [Example 1.126] |
| < 5 | CC(C)(NC(=O)CC1(NC(=O)c2cc(-c3ccc(F)cc3F)on2)CN([C@H]2CC[C@](C)(O)CC2)C1)c1cccc(C(F)(F)F)n1 [Example 1.156] |
| < 5 | CC(C)(NC(=O)CC1(NC(=O)c2cc(-c3ccc(F)cc3F)on2)CN([C@H]2CC[C@@](C)(O)CC2)C1)c1cccc(C#N)c1 [Example 1.172] |
| 5 to 100 | CCOc1cccc(C(C)(C)NC(=O)CC2(NC(=O)c3cc(-c4ccc(F)cc4F)on3)CN([C@H]3CC[C@@](C)(O)CC3)C2)c1 [Example 1.186] |
| 5 to 100 | COc1cc(C(C)(C)NC(=O)CC2(NC(=O)c3cc(-c4ccc(F)cc4F)on3)CN([C@H]3CC[C@@](C)(O)CC3)C2)ccc1F [Example 1.176] |
| < 5 | Cc1cc(Cl)cc(C(C)(C)NC(=O)CC2(NC(=O)c3nnc(-c4ccc(F)cc4F)s3)CN([C@H]3CC[C@](C)(O)CC3)C2)n1 [Example 1.006] |
| 5 to 100 | Cc1ccnc(C(C)(C)NC(=O)CC2(NC(=O)c3nnc(-c4ccc(F)cc4F)s3)CN([C@H]3CC[C@](C)(O)CC3)C2)n1 [Example 1.041] |
| < 5 | COc1cc(C(C)(C)NC(=O)CC2(NC(=O)c3cc(-c4ccc(F)cc4F)on3)CN([C@H]3CC[C@](C)(O)CC3)C2)ccn1 [Example 1.189] |
| 1000 to 20000 | Cn1nc(-c2ccc(F)cc2F)cc1C(=O)NC1(CC(=O)NC(C)(C)c2cccc(Cl)c2)CN([C@H]2CC[C@@](C)(O)CC2)C1 [Example 1.058] |
| 5 to 100 | CC(C)(NC(=O)CC1(NC(=O)c2cc(-c3ccc(F)cc3F)no2)CN([C@H]2CC[C@@](C)(O)CC2)C1)c1cccc(Cl)c1 [Example 1.047] |
| < 5 | CC(C)(NC(=O)CC1(NC(=O)c2cc(-c3ccc(F)cc3F)on2)CN([C@H]2CC[C@](C)(O)CC2)C1)c1cccc2cc[nH]c12 [Example 1.116] |
| < 5 | CC(C)(NC(=O)CC1(NC(=O)c2cc(-c3ccc(F)cc3F)on2)CN([C@H]2CC[C@](C)(O)CC2)C1)c1cccc(C#N)c1 [Example 1.173] |
| 5 to 100 | CC(C)(NC(=O)CC1(NC(=O)c2nnc(-c3ccc(F)cc3F)s2)CN([C@H]2CC[C@](C)(O)CC2)C1)c1cc(F)cc(F)c1 [Example 1.028] |
| 5 to 100 | CCc1cccc(C(C)(C)NC(=O)CC2(NC(=O)c3cc(-c4ccc(F)cc4F)on3)CN([C@H]3CC[C@](C)(O)CC3)C2)c1 [Example 1.209] |
| 100 to 1000 | CC(C)(NC(=O)CC1(NC(=O)c2cc(-c3ccc(F)cc3F)on2)CN([C@H]2CC[C@](C)(C(=O)O)CC2)C1)c1ccccn1 [Example 1.108] |
| 5 to 100 | CC(C)(NC(=O)CC1(NC(=O)c2cc(-c3ccc(F)cc3F)on2)CN([C@H]2CC[C@](C)(O)CC2)C1)c1cccnc1 [Example 1.194] |
| 5 to 100 | COC1(C)CCC(N2CC(CC(=O)NC(C)(C)c3ccccn3)(NC(=O)c3cc(-c4ccc(F)cc4F)on3)C2)CC1 (centres unmarked) [Example 1.285] |
| 5 to 100 | CC(C)(NC(=O)CC1(NC(=O)c2cc(-c3ccc(F)cc3F)on2)CN([C@H]2CC[C@](C)(O)CC2)C1)c1ncccc1F [Example 1.021] |
| < 5 | Cc1cccc(C(C)(C)NC(=O)CC2(NC(=O)c3cc(-c4ccc(F)cc4F)on3)CN([C@H]3CC[C@@](C)(O)CC3)C2)c1 [Example 1.214] |
| < 5 | CC(C)(NC(=O)CC1(NC(=O)c2cc(-c3ccc(F)cc3F)on2)CN([C@H]2CC[C@](C)(O)CC2)C1)c1cccc(F)c1 [Example 1.289] |
